Assays:
[1] = target: XIAP-BIR3 (Homo sapiens, UniProt P98170); assay: Biacore SPR solution competition binding assay vs smac7 mer peptide, XIAP-BIR3; conditions: citrate salt form tested; 100 nM XIAP-BIR3; 25° C.; read-out: XIAP-BIR3 Binding Biacore (Competitive) EC50
From the text: (§1) The compounds described herein above were profiled using a cellular assay (using SKOV3 or Panc3.27 tumor cells) and a binding assay to determine the competition between the compounds of the present invention and smac7 mer peptide for XIAP-BIR3 and cIAP1-BIR3 binding groove occupancy.
(§2) The present method includes utility of a Surface plasmon resonance (SPR)-based biosensor (Biacore™ GE Healthcare, Uppsala, Sweden) to examine competition between the compounds of the present invention and smac7 mer peptide for XIAP-BIR3 and cIAP1-BIR3 binding groove occupancy.
(§3) Biacore™ utilizes the phenomenon of surface plasmon resonance (SPR) to detect and measure binding interactions. In a typical Biacore experiment, one of the interacting molecules is immobilized on a flexible dextran matrix while the interacting partner is flowed over the derivatized surface. A binding interaction results in an increase in mass on the sensor surface and a corresponding direct change in the refractive index of the medium in the vicinity of the sensor surface. Changes in refractive index or signal are recorded in resonance units (R.U.) Signal changes due to association and dissociation of complexes are monitored in a non-invasive manner, continuously and in real-time, the results of which are reported in the form of a sensorgram.
(§4) Biacore™ T100 (GE Healthcare, Uppsala, Sweden) was used to conduct all experiments reported herein. Sensor surface preparation and interaction analyses were performed at 25° C. Buffer and Biacore reagents were purchased from GE Healthcare. Running buffer containing 10 mM Hepes, pH7.4, 150 mM sodium chloride, 1.25 mM Dithiothreitol, 2% Dimethyl sulfoxide and 0.05% polysorbate 20 was utilized throughout all experiments.
(§5) Biotinylated smac7 mer peptide was diluted to 10 nM in running buffer and captured onto a sensor surface pre-derivatized with streptavidin (sensor chip SA) towards peptide surface densities in the range 40-100 R.U. Peptide captured surfaces were blocked with 500 μM PEO2-Biotin (Thermo Scientific).
(§6) Interaction analyses were performed by first equilibrating each compound within a six point seven fold compound dilution series in the range 1 μM to 0.06 nM with either 100 nM XIAP-BIR3 or 6 nM cIAP1-BIR3 for at least one hour during instrument start-up procedures. Protein compound mixtures were then injected over reference and smac7 mer peptide surfaces in series for 60 seconds at a flow-rate of 64 μL/minutes. Surface regeneration was performed at the end of each analysis cycle by a 30 second injection of 10 mM Glycine, pH 2.5, 1M Sodium Chloride, 0.05% polysorbate 20. Additionally, control compound samples and control XIAP-BIR3 or cIAP1-BIR3 samples were prepared and run at regular intervals to monitor surface and assay performance.
(§7) Data analyses were carried out using Biacore™ T100 evaluation software v2.0 to validate assay quality. Binding level report points were plotted versus logarithmic compound concentration values and analyzed in Graphpad prism 5 via non-linear regression using a one-site competition model. EC50 values were generated and used as a measure of inhibitor potency.

[2] = target: cIAP1-BIR3 (Homo sapiens, UniProt Q13490); assay: Biacore SPR solution competition binding assay vs smac7 mer peptide, cIAP1-BIR3; conditions: citrate salt form tested; 6 nM cIAP1-BIR3; 25° C.; read-out: CIAP-BIR3 Binding Biacore (Competitive) EC50
From the text: as §1, §2, §3, §4, §5, §6, §7

[3] = test system: SKOV3 tumor cells; assay: Cellular assay, SKOV3 tumor cell proliferation (Cell Titer Glo); format: cell-based; conditions: Homo sapiens, SK-OV-3, citrate salt form tested, 72 hour growth
Method: as §1
(§8) On day one adherent SKOV3 and Panc3.27 cells are plated into two 96-well, clear, flat bottom plates. All wells in row A contain 90 uL of media. All wells in rows B-G contain a total volume of 90 uL per well and 2000 cells per well for SKOV3 and 4000 cells per well for Panc3.27 cell lines. Plates are then incubated overnight for 18 hours at 37° C., 5% CO2.
(§9) On day two cells are treated with the compounds of formula M-L-M′. Treatments are done in triplicate. The compounds are first serially diluted in DMSO and then added to media giving a final concentration of 0.2% DMSO when added to cells. Cells are treated with 10 uL of serially diluted compounds of formula M-L-M′ at a final concentration of 1000 nM, 200 nM, 40 nM, 8 nM, 1.6 nM, 0.32 nM, 0.06 nM, 0.013 nM, 0.0026 nM, and one untreated well. Plate two is used as a time zero plate.
(§10) To measure cell viability 50 uL of Cell Titer Glo (CTG) solution is added to row A, media only and B, cells and media. CTG is purchased from Promega Corporation catalog number G7573. The solution is prepared according to manufacturer's instructions. CTG measures the amount of ATP released from viable cells that is proportional to the number of cells in each well. After incubating for ten minutes with CTG plates are measured on a luminescent reader at 700 nm wavelength. Read time is approximately one second per well for a 96-well plate.
(§11) On day five 50 uL of CTG is added to plate one, rows A-G, incubated for 10 minutes at room temperature and read on a luminescent reader. Raw data is adjusted to account for the time zero plate as well as background noise. Triplicate values are averaged and percent control growth is calculated. Percent control growth is calculated using the following logical test: If well read data point (a) is greater than time zero data point (t=0), then 100*[(a)−(t=0)]/[(72 hour total growth)−(t=0)], OR 100*[(a)−(t=0)]/[(t=0)]. Data is represented by line graph with the concentration of compound on the x axis and percent control growth on the y axis.

[4] = test system: Panc3.27 tumor cells; assay: Cellular assay, Panc3.27 tumor cell proliferation (Cell Titer Glo); format: cell-based; conditions: citrate salt form tested, Panc3.27 cells, 72 hour growth, read-out: PANC proliferation IC50
Method: as §1, §8, §9, §10, §11

[5] = test system: SKOV3 or Panc3.27 tumor cells; assay: In vitro combination study, fixed concentration of IAP inhibitor with varied combination agent; format: cell-based; conditions: each agent alone
Method: as §8
On day two cells are treated with the compounds of formula M-L-M′. Treatments are done in triplicate. The compounds are first serially diluted in DMSO and then added to media giving a final concentration of 0.2% DMSO when added to cells. […]
To measure cell viability 50 uL of Cell Titer Glo (CTG) solution is added to row A, media only and B, cells and media. […] After incubating for ten minutes with CTG plates are measured on a luminescent reader at 700 nm wavelength. Read time is approximately one second per well for a 96-well plate.
as §11, with “Raw data is adjusted to account for the time zero plate as well as background noise.” left out, “Data is represented by line graph with the concentration of compound on the x axis and percent control growth on the y axis.” left out

cIAP1-BIR3, sequence (Q13490 260-352 limits assumed): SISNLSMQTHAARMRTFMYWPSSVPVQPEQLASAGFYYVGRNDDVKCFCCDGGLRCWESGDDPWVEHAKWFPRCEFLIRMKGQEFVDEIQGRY
XIAP-BIR3, sequence (P98170 241-356 limits assumed): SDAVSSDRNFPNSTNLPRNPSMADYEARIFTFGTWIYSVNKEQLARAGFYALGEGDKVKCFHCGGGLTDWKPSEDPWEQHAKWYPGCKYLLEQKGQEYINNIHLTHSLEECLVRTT

SMILES | EC50 [1] [nM] | EC50 [2] [nM] | IC50 [3] [nM] | IC50 [4] [nM] | single agent activity in the in vitro combination study [5]
CN[C@@H](C)C(=O)N[C@@H](CCCCNC(=O)c1ccc(-c2ccc(C(=O)NCCCC[C@H](NC(=O)[C@H](C)NC)C(=O)N3CCC[C@H]3c3cncc(C(=O)c4ccc(F)cc4)c3)cc2)cc1)C(=O)N1CCC[C@H]1c1cncc(C(=O)c2ccc(F)cc2)c1 [Example 1J, Biphenyl-4,4′-dicarboxylic acid bis-{[(S)-6-{(S)-2-[5-(4-fluorobenzoyl)-pyridin-3-yl]-pyrrolidin-1-yl}-5-((S)-2-methylamino-propionylamino)-6-oxo-hexyl]-amide}] | 60.4 to 162 | 0.58 to 3.12 | 0.026 to 5.94 | 0.0026 to 6.67 | neither Example 1J nor paclitaxel alone showed significant activity
CN[C@@H](C)C(=O)N[C@@H](CCCCNC(=O)CCCCCC(=O)NCCCC[C@H](NC(=O)[C@H](C)NC)C(=O)N1CCC[C@H]1c1cncc(C(=O)c2ccc(F)cc2)c1)C(=O)N1CCC[C@H]1c1cncc(C(=O)c2ccc(F)cc2)c1 [Example 1A, Heptanedioic acid bis-{[(S)-6-{(S)-2-[5-(4-fluoro-benzoyl)-pyridin-3-yl]-pyrrolidin-1-yl}-5-((S)-2-methylamino-propionylamino)-6-oxo-hexyl]-amide}] | 126 to 131 | 0.68 to 0.7 | 41 to 77.1 | 72.4 to 427 | –
CN[C@@H](C)C(=O)N[C@@H](Cc1ccc(NC(=O)c2cccc(C(=O)Nc3ccc(C[C@H](NC(=O)[C@H](C)NC)C(=O)N4CCC[C@H]4c4cncc(C(=O)c5ccc(F)cc5)c4)cc3)c2)cc1)C(=O)N1CCCC1c1cncc(C(=O)c2ccc(F)cc2)c1 (stereo partly drawn) [Example 2D, N,N′-Bis-{4-[(S)-3-{(S)-2-[5-(4-fluoro-benzoyl)-pyridin-3-yl]-pyrrolidin-1-yl}-2-((S)-2-methylamino-propionylamino)-3-oxo-propyl]-pheny}-isophthalamide] | 228 to 238 | 0.66 to 0.68 | 107 to 291 | 167 to 694 | –
CN[C@@H](C)C(=O)N[C@@H](CCCCNC(=O)c1ccc(C(=O)NCCCC[C@H](NC(=O)[C@H](C)NC)C(=O)N2CCC[C@H]2c2cncc(C(=O)c3ccc(F)cc3)c2)cc1)C(=O)N1CCC[C@H]1c1cncc(C(=O)c2ccc(F)cc2)c1 [Example 1C, N,N′-Bis-[(S)-6-{(S)-2-[5-(4-fluorobenzoyl)-pyridin-3-yl]-pyrrolidin-1-yl}-5-((S)-2-methylamino-propionylamino)-6-oxo-hexyl]-terephthalamide] | 413 to 425 | 4.75 to 4.89 | 84 to 127 | 63.3 to 147 | –
CC(=O)O[C@H]1C(=O)[C@@]2(C)[C@H]([C@H](OC(=O)c3ccccc3)[C@]3(O)C[C@H](OC(=O)[C@H](O)[C@@H](NC(=O)c4ccccc4)c4ccccc4)C(C)=C1C3(C)C)[C@]1(OC(C)=O)CO[C@@H]1C[C@@H]2O [Paclitaxel, paclitaxel, reference compound] | – | – | – | – | neither Example 1J nor paclitaxel alone showed significant activity
CN[C@@H](C)C(=O)N[C@@H](CCCCNC(=O)CCCCCCCC(=O)NCCCC[C@H](NC(=O)[C@H](C)NC)C(=O)N1CCC[C@H]1c1cncc(C(=O)c2ccc(F)cc2)c1)C(=O)N1CCC[C@H]1c1cncc(C(=O)c2ccc(F)cc2)c1 [Example 1F, Nonanedioic acid bis-{[(S)-6-{(S)-2-[5-(4-fluoro-benzoyl)-pyridin-3-yl]-pyrrolidin-1-yl}-5-((S)-2-methylamino-propionylamino)-6-oxo-hexyl]-amide}] | 129 to 145 | 0.68 to 0.69 | 16.1 to 20.1 | 12.8 to 106 | –

Reference: patent US8445440B2, “Dimeric IAP inhibitors” (Novartis AG, priority 2010, dated 2013)
